Columns and labels:
Assay type in all cases: in vivo
Set-up in all cases: key: compounds were considered to be active when, at a concentration of 500 ppm or less, they had an activity on the harmful organisms of 50% or more
[1] = test system: Diabrotica undecimpunctata; assay: Example AC: treated soil, southern corn rootworm eggs mortality; details: 500 ppm or less, eggs added after 0d, 21d and 42d, after 2 weeks
Description: An aqueous solution of the formulated compound to be examined was mixed with soil. After 0d, 21d and 42d, eggs of the southern corn rootworm (Diabrotica undecimpunctata) were placed together with 2 pre-swollen maize corns into a dish, covered with the treated soil and moisted with 10 ml of water. Soil and eggs were placed in a greenhouse (23° C., 60% relative atmosphere humidity). After 2 weeks of storage, the effect of the compound on the eggs and any larvae hatched therefrom was determined (mortality). The following examples were active: 70, 60, 197, 204.

[2] = test system: Spodoptera exigua; assay: Example Z: cotton leaves with larvae sprayed, sugar beet armyworm mortality; details: 500 ppm or less; cotton leaves populated then sprayed; L2 larvae; after 4 days
Description: Cotton leaves were populated with 5 L2 larvae of the sugar beet armyworm (Spodoptera exigua) and then sprayed with an aqueous solution of the formulated compound to be examined. After 4 days of storage at about 23° C., the mortality among the larvae was determined. The following examples were active: 1036, 70, 60, 1047, 197.

[3] = test system: Diabrotica undecimpunctata; assay: Example C: corn rootworm eggs with maize corn, mortality; details: 500 ppm or less; 4-5-day-old eggs; after 6 days
[4] = test system: Leptinotarsa decemlineata; assay: Example AI: sprayed potato plant, repellent effect on Colorado beetle larvae; details: 500 ppm or less; sprayed plant with untreated plant in a cage; after 1 and 3 days
Description: A potato plant was sprayed with an aqueous solution of the formulated compound to be examined and, together with an untreated plant, placed in a cage. The cage was populated with 100 larvae of the Colorado beetle (Leptinotarsa decemlineata). […] The following examples were active: 1036, 70, 60.

[5] = test system: Plutella maculipennis; assay: Example P: dipped cabbage leaf, diamondback moth larvae; details: 500 ppm or less, after 3 days
Description: A cabbage leaf was dipped for about 5 seconds into an aqueous solution of the formulated compound to be examined. After drying, the cabbage leaf treated in this manner was transferred into a container and populated with 10 larvae of the diamondback moth (Plutella maculipennis). The container was then closed with a lid. After 3 days of storage at about 23° C., the effect of the compound on the larvae was determined. The following examples were active: 1036, 70, 60, 209.

[6] = test system: Heliothis virescens; assay: Example B: tobacco budworm eggs on filter paper/insect diet, mortality; details: 500 ppm or less; 24-hour-old eggs dipped, diet treated; after 6 days
[7] = test system: Heliothis virescens; assay: Example V: dipped freeze-dried diet cube, tobacco budworm L2 larvae mortality; details: 500 ppm or less, after 4 days
Description: Insect diet (as freeze-dried cube) was dipped into an aqueous solution of the formulated compound to be examined and then placed into a Petri dish. 10 L2 larvae of the American tobacco budworm (Heliothis virescens) were then added. The Petri dish was then closed with a lid. After 4 days of storage at about 23° C., the mortality among the larvae was determined. The following examples were active: 1036, 60.

CC1CCN(CC#Cc2cc(C(F)(F)F)cc(C(F)(F)F)n2)CC1 [Example 60]
active: effect on the eggs and hatched larvae (mortality) [1] | mortality among the larvae [2] | effect on the eggs and hatched larvae (mortality) [3] | repellent effect on the larvae [4] | effect on the larvae [5] | effect on the eggs and hatched larvae (mortality) [6] | mortality among the larvae [7]

Source: US7084158B2, “Substituted propargylamines” (Bayer Cropscience S.A., priority 2001, dated 2006)
